This is an account of results in the supplement of paper PMC10307832.

Common to all, as to assay: relative viability (nuclei count vs DMSO), 5 days (fraction); higher = more cells survive
Compound in experiment [1]: C[C@]12O[C@H](C[C@]1(O)CO)n1c3ccccc3c3c4c(c5c6ccccc6n2c5c31)CNC4=O [Lestaurtinib] + Cc1cc(Nc2cc(N3CCN(C)CC3)nc(Sc3ccc(NC(=O)C4CC4)cc3)n2)n[nH]1 [Tozasertib] (partner 0.1 µM)
The gist of the method:
(§1)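 Relative viability was taken as the ratio of nuclei in treated wells to nuclei in vehicle wells. Lung cancer cell lines in 1536-well plates received compounds by pin tool one day after seeding, either one drug alone or a fixed anchor-drug dose plus five library-drug doses (not always all listed) in √10 steps. Nuclei were counted on 4× images after 5 days of treatment, and values are medians of duplicate plates.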

Compound in experiment [2]: C[C@]12O[C@H](C[C@]1(O)CO)n1c3ccccc3c3c4c(c5c6ccccc6n2c5c31)CNC4=O [Lestaurtinib] + C[C@]1(O)C[C@@H](c2nc(-c3ccc4ccc(-c5ccccc5)nc4c3)c3c(N)nccn32)C1 [Linsitinib] (partner 1 µM)
The gist of the method:
as §1

Compound in experiment [3]: C1/C(=C\C2=CC=CS2)/C(=O)/C(=C/C3=CC=CS3)/C1 + C[C@]1(O)C[C@@H](c2nc(-c3ccc4ccc(-c5ccccc5)nc4c3)c3c(N)nccn32)C1 [Linsitinib] (partner 1 µM)
In a few lines: as §1

Compound in experiment [4]: C1/C(=C\C2=CC=CS2)/C(=O)/C(=C/C3=CC=CS3)/C1 + COc1cc2c(Oc3ccc(NC(=O)C4(C(=O)Nc5ccc(F)cc5)CC4)cc3F)ccnc2cc1OCCCN1CCOCC1 [Foretinib] (partner 0.25 µM)
The gist of the method: as §1

Take NCI-H1793: the relative viability in experiment [1] (first compound 0.005 µM) was 0.335; in experiment [1] (first compound 0.01581 µM), 0.279; in experiment [1] (first compound 0.05 µM), 0.347; in experiment [1] (first compound 0.1581 µM), 0.265; in experiment [1] (first compound 0.5 µM), 0.255; in experiment [2] (first compound 0.005 µM), 0.897. Also, the relative viability in experiment [2] (first compound 0.01581 µM) was 0.816; in experiment [2] (first compound 0.05 µM), 0.467; in experiment [2] (first compound 0.1581 µM), 0.876; in experiment [2] (first compound 0.5 µM) it was 0.566; in experiment [3] (first compound 0.2 µM) it was 0.815; in experiment [3] (first compound 0.6325 µM), 0.855. Moreover, the relative viability in experiment [3] (first compound 2 µM) came to 0.913; in experiment [3] (first compound 6.325 µM) it was 0.855; in experiment [3] (first compound 20 µM), 0.685; in experiment [4] (first compound 0.2 µM) it was 0.754; in experiment [4] (first compound 0.6325 µM), 0.629; in experiment [4] (first compound 2 µM) it was 0.783. Moreover, the relative viability in experiment [4] (first compound 6.325 µM) stood at 0.579; in experiment [4] (first compound 20 µM), 0.625.

In the case of NCI-H1915, the relative viability in experiment [1] (first compound 0.005 µM) was found to be 0.498; in experiment [1] (first compound 0.01581 µM), 0.532; in experiment [1] (first compound 0.05 µM), 0.363; in experiment [1] (first compound 0.1581 µM), 0.49; in experiment [1] (first compound 0.5 µM), 0.214; in experiment [2] (first compound 0.005 µM), 1.21. Besides, the relative viability in experiment [2] (first compound 0.01581 µM) amounted to 1.09; in experiment [2] (first compound 0.05 µM) it was 1.11; in experiment [2] (first compound 0.1581 µM) it was 0.797; in experiment [2] (first compound 0.5 µM), 0.565; in experiment [3] (first compound 0.2 µM) it was 1.14; in experiment [3] (first compound 0.6325 µM), 1.08. Further, the relative viability in experiment [3] (first compound 2 µM) came out at 1.09; in experiment [3] (first compound 6.325 µM), 1.04; in experiment [3] (first compound 20 µM), 1.1; in experiment [4] (first compound 0.2 µM), 1.09; in experiment [4] (first compound 0.6325 µM), 1.1; in experiment [4] (first compound 2 µM), 1.01. For the same cell line, the results for the relative viability in experiment [4] (first compound 6.325 µM) and in experiment [4] (first compound 20 µM) were 1.07 and 1.1, respectively.

Turning to NCI-H1944, the relative viability in experiment [1] (first compound 0.005 µM) amounted to 0.262; in experiment [1] (first compound 0.01581 µM), 0.276; in experiment [1] (first compound 0.05 µM) it was 0.234; in experiment [1] (first compound 0.1581 µM) it was 0.236; in experiment [1] (first compound 0.5 µM) it was 0.201; in experiment [2] (first compound 0.005 µM), 1.14. In addition, the relative viability was determined as 1.14 in experiment [2] (first compound 0.01581 µM); 0.717 in experiment [2] (first compound 0.05 µM); 0.555 in experiment [2] (first compound 0.1581 µM); 0.634 in experiment [2] (first compound 0.5 µM); 1.32 in experiment [3] (first compound 0.2 µM); 1.09 in experiment [3] (first compound 0.6325 µM). Moreover, the relative viability in experiment [3] (first compound 2 µM) came to 1.23; in experiment [3] (first compound 6.325 µM) it was 1.17; in experiment [3] (first compound 20 µM), 1.01; in experiment [4] (first compound 0.2 µM), 0.918; in experiment [4] (first compound 0.6325 µM), 0.828; in experiment [4] (first compound 2 µM), 0.89. The relative viability in experiment [4] (first compound 6.325 µM) turned out to be 0.844; in experiment [4] (first compound 20 µM), 0.859.

As to NCI-H1975, the relative viability worked out at 0.943 in experiment [1] (first compound 0.005 µM); 1.02 in experiment [1] (first compound 0.01581 µM); 0.715 in experiment [1] (first compound 0.05 µM); 0.552 in experiment [1] (first compound 0.1581 µM); 0.486 in experiment [1] (first compound 0.5 µM); 1.09 in experiment [2] (first compound 0.005 µM). Moreover, the relative viability in experiment [2] (first compound 0.01581 µM) worked out at 0.967; in experiment [2] (first compound 0.05 µM), 0.717; in experiment [2] (first compound 0.1581 µM) it was 0.537; in experiment [2] (first compound 0.5 µM) it was 0.302; in experiment [3] (first compound 0.2 µM), 1.02; in experiment [3] (first compound 0.6325 µM), 0.947. Also, the relative viability in experiment [3] (first compound 2 µM) worked out at 0.957; in experiment [3] (first compound 6.325 µM), 0.808; in experiment [3] (first compound 20 µM) it was 0.9; in experiment [4] (first compound 0.2 µM), 0.971; in experiment [4] (first compound 0.6325 µM) it was 0.979; in experiment [4] (first compound 6.325 µM) it was 0.771. Also, the relative viability in experiment [4] (first compound 20 µM) stood at 0.895.

As for NCI-H1993, the relative viability in experiment [1] (first compound 0.005 µM) was 0.636; in experiment [1] (first compound 0.01581 µM) it was 0.545; in experiment [1] (first compound 0.05 µM) it was 0.57; in experiment [1] (first compound 0.1581 µM), 0.54; in experiment [1] (first compound 0.5 µM), 0.529; in experiment [2] (first compound 0.005 µM), 0.702. Moreover, the relative viability in experiment [2] (first compound 0.01581 µM) amounted to 0.673; in experiment [2] (first compound 0.05 µM), 0.713; in experiment [2] (first compound 0.1581 µM), 0.698; in experiment [2] (first compound 0.5 µM) it was 0.573; in experiment [3] (first compound 0.2 µM), 0.683; in experiment [3] (first compound 0.6325 µM), 0.694. Moreover, the relative viability in experiment [3] (first compound 2 µM) came out at 0.672; in experiment [3] (first compound 6.325 µM), 0.679; in experiment [3] (first compound 20 µM), 0.792; in experiment [4] (first compound 0.2 µM), 0.748; in experiment [4] (first compound 0.6325 µM), 0.751; in experiment [4] (first compound 2 µM) it was 0.75. In addition, the relative viability in experiment [4] (first compound 6.325 µM) was determined as 0.572; in experiment [4] (first compound 20 µM) it was 0.745.

For the cell line NCI-H2009, the relative viability came to 0.783 in experiment [1] (first compound 0.005 µM); 0.832 in experiment [1] (first compound 0.01581 µM); 0.625 in experiment [1] (first compound 0.05 µM); 0.454 in experiment [1] (first compound 0.1581 µM); 0.359 in experiment [1] (first compound 0.5 µM); 1.25 in experiment [2] (first compound 0.005 µM). The relative viability worked out at 1.23 in experiment [2] (first compound 0.01581 µM); 1.09 in experiment [2] (first compound 0.05 µM); 1.01 in experiment [2] (first compound 0.1581 µM); 0.581 in experiment [2] (first compound 0.5 µM); 1.28 in experiment [3] (first compound 0.2 µM); 1.2 in experiment [3] (first compound 0.6325 µM). In addition, the relative viability is 1.15 in experiment [3] (first compound 2 µM); 0.712 in experiment [3] (first compound 6.325 µM); 1.13 in experiment [3] (first compound 20 µM); 1.31 in experiment [4] (first compound 0.2 µM); 1.23 in experiment [4] (first compound 0.6325 µM); 1.2 in experiment [4] (first compound 2 µM). For the same cell line, the relative viability in experiment [4] (first compound 6.325 µM) is 1.2; in experiment [4] (first compound 20 µM) it was 1.21.

Take NCI-H2023: the relative viability in experiment [1] (first compound 0.005 µM) is 0.386; in experiment [1] (first compound 0.01581 µM) it was 0.554; in experiment [1] (first compound 0.05 µM), 0.357; in experiment [1] (first compound 0.1581 µM), 0.269; in experiment [1] (first compound 0.5 µM) it was 0.0989; in experiment [2] (first compound 0.005 µM), 0.653. Besides, the relative viability came to 0.709 in experiment [2] (first compound 0.01581 µM); 0.547 in experiment [2] (first compound 0.05 µM); 0.369 in experiment [2] (first compound 0.1581 µM); 0.208 in experiment [2] (first compound 0.5 µM); 0.794 in experiment [3] (first compound 0.2 µM); 0.684 in experiment [3] (first compound 0.6325 µM). For the same cell line, the relative viability was found to be 0.668 in experiment [3] (first compound 2 µM); 0.731 in experiment [3] (first compound 6.325 µM); 0.679 in experiment [3] (first compound 20 µM); 0.949 in experiment [4] (first compound 0.6325 µM); 0.998 in experiment [4] (first compound 2 µM); 0.82 in experiment [4] (first compound 6.325 µM). Moreover, in experiment [4] (first compound 20 µM), the relative viability is 1.05.
